Patent US20050013781A1, “Sunscreen composition” (Playtex Products, Inc., priority 2003, published 2005)

Experiments:
Assay type in all cases: physicochemical
[1] = Dielectric constant of glycols and derivatives; details: for Dielectric Constant, 23° C.: neat glycol/derivative
Text: Determining the polarity of a mixture or an emulsion can be performed in various ways. For example, determining a polarity can include measuring a property that is a function of polarity, such as a dielectric constant. Measurement of a dielectric constant of a liquid can be performed by various sensors, such as immersion probes, flow-through probes, and cup-type probes, attached to various meters, such as those available from the Brookhaven Instruments Corporation of Holtsville, N.Y. (e.g., model BI-870) and the Scientifica Company of Princeton, N.J. (e.g. models 850 and 870). For consistency of comparison, preferably all measurements for a particular filter system are performed at substantially the same sample temperature, e.g., by use of a water bath. Generally, the measured dielectric constant of a substance will increase at lower temperatures and decrease at higher temperatures.
Dielectric Constants of the following glycols and their derivatives have been measured (see Table 1).

[2] = Photostability on VITRO-SKIN: retained absorbance and critical wavelength before and after irradiation
Protocol: Referring to Table 7 above, the compositions were applied on Vitro-Skin (0.6 mg/cm2) and irradiated. The irradiation dose was 5 MEDs repeated 4 times (=20 MEDs total). Retained Absorbance at 370 nm (UVA photostability, FIG. 1), 310 nm (UVB photostability, FIG. 2) and critical wavelength (Table 8, FIG. 3) were determined for each composition before and after each irradiation dose in order to determine their photostability.
The resulting sunscreen oil phases were tested for photostability by measuring absorbance on a Labsphere UV-1000S Ultraviolet Transmittance Analyzer before and after irradiation with a Solar Light Company model 16S solar simulator (equipped with a WG 320 filter to transmit radiation greater than 290 nm) in 5 MED (105 mJ/cm^2) increments up to 20 MED cumulative dose. Output was monitored by a PMA 2105 UV-B DCS Detector (biologically weighted) and controlled by a PMA 2100 Automatic Dose Controller (Solar Light Co.).
A synthetic skin substrate was used for testing the sunscreen compositions (VITRO-SKIN substrate by IMS, Inc. of Milford, Conn.). To prepare the substrate, a 300 g solution of 44 g of glycerin and 256 g of deionized water was added to an IMS hydrating chamber, and a sheet of VITRO-SKIN was placed in the hydrating chamber for approx. 16 hours. Several 6.5 cm squares were cut from the hydrated VITRO-SKIN and used for absorbance measurements.
To prepare slides for testing, sunscreen composition is drawn or placed into a pipette. The test composition is uniformly applied to VITRO-SKIN square (0.6 mg/cm^2). This application dose of the oil phase, 0.6 mg/cm^2, corresponds to the application dose of 2 mg/cm^2 of sunscreen formulation (typically the concentration of the oil phase in the sunscreen formulation is about 30%). The VITRO-SKIN square was then placed on a foam block, and the test material was spread by finger (covered with a latex glove or finger cot), first in a circular motion, then by a side-to-side motion during which the VITRO-SKIN is deformed by the pressure. The square was then mounted in a slide holder and allowed to dry for about 15 to 20 minutes.
To test photostability, a slide was positioned on the UV transmittance analyzer using registration marks, and a scan of 1 sq. cm spot on the slide was performed. The slide was then transferred to a holder placed adjacent to the solar simulator and, using a calipers, was positioned such that the beam of UV radiation exiting the solar simulator illuminated the same 1 cm spot on the slide. The following software settings were used: UV-B—290-320 nm; UV-A—320-400 nm; SPF—290-400 nm; Spectral Irradiance; Noon, July 3, Albuquerque, N.Mex.; SPF Spectral Irradiance and Erythermal Effectiveness settings as set by manufacturer. Following an exposure of 5 MED, the slide was again placed in position on the UV transmittance analyzer, and a scan of the exposed spot was performed. The procedure was repeated on the same 1 cm spot on the slide until the desired total radiation dosage was achieved.
The above compositions were applied on Vitro-Skin (0.6 mg/cm2) and irradiated. The irradiation dose was 5 MEDs repeated 4 times (=20 MEDs total). Retained Absorbance at 370 nm (Table 11 and FIG. 4), 310 nm (Table 12) and critical wavelength (Table 13 and FIG. 5) were determined for each composition before and after each irradiation dose in order to determine their photostability. The methodology is described above in more detail in Example 3.

[3] = DOE (central composite design) photostability of model oil phases: retained absorbance after 15 MED; details: response surface analysis of DOE 1-3
Protocol: In order to determine the impact of the concentration of avobenzone, from 0.04842 M to 0.0968 M (Factor 1) and different molar ratios of 1,2-octanediol (caprylyl glycol) to avobenzone, from 0 to 10 (Factor 2), on the photostability of avobenzone in the different sunscreen compositions, numerous studies were conducted. Three designs of experiments that represent central composite designs (CCDs) and D.O.E. Fusion 7.2.2 software were employed.
The CCD type of design was used to determine the effect of two factors: concentration of Avobenzone and the molar ratio 1,2-octanediol/avobenzone on the photostability of avobenzone in the different sunscreen compositions. Two responses were measured: the retained absorbance (%) of a sunscreen composition at 370 nm (UVA) and the same measurement at 310 nm (UVB) after irradiation dose of 15 MED.
The same order of experiments was run in the different set-ups. As a result, two categorical factors were added: Oxybenzone (absent or present at a predetermined constant level) and Octocrylene (absent or present at a predetermined constant level). Table 16 presents the three set-ups as well as the numbers of the formulation tables and response tables.
Response surface equalization were fitted to both responses (retained absorbance at 370 nm and retained absorbance at 310 nm, both after an irradiation dose of 15 MED). The significant factors were selected.

| Compound | Dielectric Constant, 23° C. [1] | photostability of UVB sunscreens at 310 nm (in words) [2] | photostability of avobenzone at 370 nm (in words) [2] | effect on retained absorbance at 310 nm after 15 MED (in words) [3] | effect on retained absorbance at 370 nm after 15 MED (in words) [3] | also measured |
| --- | --- | --- | --- | --- | --- | --- |
| CCC(=O)OCCCCO [Butylene Glycol Monopropionate] | 11.72 |  |  |  |  |  |
| CCCC(O)CO (centres unmarked) [Pentylene Glycol, 1,2-pentanediol] | 18.2 | can improve the photostability of UVB sunscreens at 310 nm | without the significant improvement of the photostability of avobenzone at 370 nm |  |  |  |
| CCCCC(O)CO (centres unmarked) [1,2-Hexanediol] | 15.1 | can improve the photostability of UVB sunscreens at 310 nm | without the significant improvement of the photostability of avobenzone at 370 nm |  |  |  |
| Polyethylene Glycol-7 Methyl Ether | 13.1 |  |  |  |  |  |
| CCCCOCCOCCO [Diethylene Glycol Monobutyl Ether] | 10.59 |  |  |  |  |  |
| CCCCC(CC)COC(=O)C(C#N)=C(c1ccccc1)c1ccccc1 (centres unmarked) [Octocrylene, 2-ethylhexyl-2-cyano-3,3 diphenylacrylate] |  |  |  | gives mild a gain in absorbency | helps the absorbance retention 370 nm, but not as significant as in the case of oxybenzone |  |
| COc1ccc(C(=O)c2ccccc2)c(O)c1 [Oxybenzone, oxybenzone] |  |  |  | helps retention at 310 nm | gives the highest boost in retain absorbance at 370 nm and 15 MED exposure |  |
| CCOCCOCCO [Ethoxydiglycol, Diethylene glycol monoethyl ether] | 13.69 | can improve the photostability of UVB sunscreens at 310 nm | without the significant improvement of the photostability of avobenzone at 370 nm |  |  |  |
| CCCCCCC(O)CO (centres unmarked) [1,2-Octanediol] |  |  |  | significantly improves the photostability of sunscreens at 310 nm | significantly improves the photostability | photostabilization of avobenzone (in words) [2]: most effectively stabilizes avobenzone; Dielectric Constant ([1]; measured at 30° C., solid at room temperature (23 C.)): 10.61 |
